According to DBAASP:
In brackets after ≈: the same amount, converted by molar mass. Several values for one entry are separate records, joined by “and”; a condition that tells them apart may be missing. Equal entries are not always repeated. Values belong to the molecule of their own block, whether it stands above or below them.

Columns and labels:
Experiment in all cases: ≥ marks a high value that may be exact or a test limit, other limits are often not marked, values filed in µg/mL are converted to µM
[1] = test system: Pseudomonas aeruginosa ATCC BAA-427
[2] = test system: Bacillus subtilis ATCC 6633
[3] = test system: Klebsiella pneumoniae ATCC 27736
[4] = test system: Staphylococcus aureus ATCC 33591
[5] = test system: Pseudomonas aeruginosa ATCC 27853
[6] = test system: Staphylococcus aureus ATCC 25923
[7] = test system: Staphylococcus epidermidis ATCC 35984
[8] = test system: Micrococcus luteus ATCC 10240
[9] = test system: Escherichia coli BL21AI
[10] = test system: Streptococcus pyogenes ATCC 19615
[11] = test system: Enterococcus faecalis ATCC 29212
[12] = test system: Klebsiella pneumoniae ATCC 13883
[13] = test system: Bacillus subtilis
[14] = test system: Escherichia coli
[15] = test system: Salmonella enterica subsp. enterica serovar Typhimurium ATCC 14028
[16] = test system: Candida albicans TIMM 1768
[17] = test system: Trichosporon beigelii KCTC 7707
[18] = test system: Saccharomyces cerevisiae KCTC 7296
[19] = test system: Escherichia coli BL21(DE3)

Structure (SMILES): CC[C@H](C)[C@H](NC(=O)CNC(=O)[C@H](CCCN=C(N)N)NC(=O)[C@H](Cc1ccccc1)NC(=O)[C@H](C)NC(=O)[C@H](Cc1cnc[nH]1)NC(=O)[C@H](Cc1cnc[nH]1)NC(=O)[C@H](Cc1ccccc1)NC(=O)[C@@H](N)Cc1ccccc1)C(=O)N[C@H](C(=O)N[C@@H](Cc1cnc[nH]1)C(=O)N[C@H](C(=O)NCC(=O)N[C@@H](CCCCN)C(=O)N[C@H](C(=O)N[C@H](C(=O)N[C@@H](Cc1cnc[nH]1)C(=O)N[C@@H](CCCN=C(N)N)C(=O)N[C@@H](CC(C)C)C(=O)N[C@H](C(=O)N[C@H](C(=O)NCC(N)=O)[C@@H](C)O)C(C)C)[C@@H](C)CC)[C@@H](C)O)C(C)C)C(C)C [FFHHAFRGIVHVGKTIHRLVTG]
MIC [1]: 20 µM (≈ 50.6 µg/mL) | MIC [2]: 16 µM (≈ 40.5 µg/mL) | MIC [3]: 12 µM (≈ 30.3 µg/mL)

Structure (SMILES): CC[C@H](C)[C@H](NC(=O)[C@H](Cc1cnc[nH]1)NC(=O)[C@H](Cc1cnc[nH]1)NC(=O)[C@H](Cc1ccccc1)NC(=O)[C@@H](N)Cc1ccccc1)C(=O)N[C@@H](Cc1ccccc1)C(=O)N[C@@H](CCCN=C(N)N)C(=O)NCC(=O)N[C@H](C(=O)N[C@H](C(=O)N[C@@H](Cc1cnc[nH]1)C(=O)N[C@H](C(=O)NCC(=O)N[C@@H](CCCCN)C(=O)N[C@H](C(=O)N[C@H](C(=O)N[C@@H](Cc1cnc[nH]1)C(=O)N[C@@H](CCCN=C(N)N)C(=O)N[C@@H](CC(C)C)C(=O)N[C@H](C(=O)N[C@H](C(=O)NCC(N)=O)[C@@H](C)O)C(C)C)[C@@H](C)CC)[C@@H](C)O)C(C)C)C(C)C)C(C)C [FFHHIFRGVVHVGKTIHRLVTG]
MIC [1]: 12 µM (≈ 30.7 µg/mL) | MIC [2]: 8 µM (≈ 20.5 µg/mL) | MIC [3]: 6 µM (≈ 15.3 µg/mL)

Structure (SMILES): CC[C@H](C)[C@H](NC(=O)[C@H](CCCCN)NC(=O)[C@@H](NC(=O)[C@H](Cc1ccccc1)NC(=O)[C@H](C)NC(=O)[C@H](CCCCN)NC(=O)CNC(=O)[C@H](Cc1ccccc1)NC(=O)[C@H](CCCCN)NC(=O)[C@H](CCCCN)NC(=O)[C@H](C)NC(=O)[C@H](CCCCN)NC(=O)[C@H](CCCCN)NC(=O)[C@H](CC(C)C)NC(=O)[C@@H](N)Cc1ccccc1)C(C)C)C(=O)N[C@@H](CC(C)C)C(=O)N[C@@H](CCCCN)C(N)=O [FLKKAKKFGKAFVKILK]
MIC [4]: ≥ 128 µM | MIC [5]: 1 µM (≈ 2 µg/mL) | MIC [6]: 45.4 µM (≈ 90.5 µg/mL) | MIC [7]: 1.42 µM (≈ 2.83 µg/mL)

Structure (SMILES): CC[C@H](C)[C@H](NC(=O)[C@@H]1CCCN1C(=O)[C@H](CCCN=C(N)N)NC(=O)[C@@H]1CCCN1C(=O)[C@H](Cc1cnc[nH]1)NC(=O)[C@@H]1CCCN1C(=O)[C@@H]1CCCN1C(=O)[C@H](CCCN=C(N)N)NC(=O)[C@@H]1CCCN1C(=O)[C@H](CCC(N)=O)NC(=O)[C@@H]1CCCN1C(=O)[C@@H](NC(=O)[C@H](Cc1ccc(O)cc1)NC(=O)[C@@H](NC(=O)[C@@H]1CCCN1C(=O)[C@H](CCCN=C(N)N)NC(=O)[C@H](CC(N)=O)NC(=O)[C@H](CC(N)=O)NC(=O)CN)C(C)C)[C@@H](C)CC)C(=O)N[C@@H](CCCN=C(N)N)C(=O)N[C@H](C(=O)O)C(C)C [GNNRPVYIPQPRPPHPRPIRV]
MIC [8]: 0.199 µM (≈ 0.49 µg/mL) | MIC [9]: 6.35 µM (≈ 15.6 µg/mL)

Structure (SMILES): CC[C@H](C)[C@H](NC(=O)[C@H](CCCCN)NC(=O)[C@@H](NC(=O)[C@H](Cc1ccccc1)NC(=O)[C@H](C)NC(=O)[C@H](CCCCN)NC(=O)CNC(=O)[C@H](Cc1ccccc1)NC(=O)[C@H](CCCCN)NC(=O)[C@H](CCCCN)NC(=O)[C@H](C)NC(=O)[C@@H](N)CCCCN)C(C)C)C(N)=O [KAKKFGKAFVKI]
MIC [4]: ≥ 375 µM | MIC [5]: 66.3 µM (≈ 90.4 µg/mL) | MIC [6]: > 375 µM | MIC [7]: ≥ 133 µM

Next, values leading:

MIC [10]: 8 µM (≈ 14 µg/mL) | MIC [11]: 4 µM (≈ 6.99 µg/mL) | MIC [12]: 8 µM (≈ 14 µg/mL) | MIC [13]: 8 µM (≈ 14 µg/mL) | MIC [5]: 8 µM (≈ 14 µg/mL) | MIC [14]: 4 µM (≈ 6.99 µg/mL) | MIC [6]: 2 µM (≈ 3.49 µg/mL) | MIC [15]: 8 µM (≈ 14 µg/mL)
Structure (SMILES): CC(C)C[C@H](NC(=O)[C@H](CCCN=C(N)N)NC(=O)CNC(=O)CNC(=O)[C@@H](N)CCCN=C(N)N)C(=O)N[C@@H](Cc1ccc(O)cc1)C(=O)N[C@@H](CCCN=C(N)N)C(=O)N[C@@H](CCCN=C(N)N)C(=O)N[C@@H](CCCN=C(N)N)C(=O)N[C@@H](Cc1ccccc1)C(=O)N[C@H](C(=O)N[C@H](C(=O)NCC(=O)N[C@@H](CCCN=C(N)N)C(N)=O)C(C)C)C(C)C [RGGRLYRRRFVVGR]

MIC [16]: 10 µM (≈ 30.8 µg/mL) | MIC [17]: 20 µM (≈ 61.6 µg/mL) | MIC [18]: 14.1 µM (≈ 43.5 µg/mL)
Structure (SMILES): CC[C@H](C)[C@H](NC(=O)[C@@H](NC(=O)[C@@H](N)CCCN=C(N)N)[C@@H](C)CC)C(=O)N[C@@H](CC(=O)O)C(=O)N[C@@H](CC(C)C)C(=O)N[C@@H](CC(C)C)C(=O)N[C@@H](Cc1c[nH]c2ccccc12)C(=O)N[C@@H](CCCN=C(N)N)C(=O)N[C@H](C(=O)N[C@@H](CCCN=C(N)N)C(=O)N[C@@H](CCCN=C(N)N)C(=O)N1CCC[C@H]1C(=O)N[C@@H](Cc1c[nH]c2ccccc12)C(=O)N[C@@H](Cc1c[nH]c2ccccc12)C(=O)N1CCC[C@H]1C(=O)N[C@@H](CCCCN)C(=O)N[C@@H](Cc1ccccc1)C(=O)N[C@H](C(=O)N[C@H](C(=O)N[C@H](C(=O)N[C@@H](Cc1c[nH]c2ccccc12)C(=O)N[C@H](C(=O)N[C@@H](CCCN=C(N)N)C(N)=O)C(C)C)C(C)C)[C@@H](C)O)C(C)C)C(C)C [RIIDLLWRVRRPWWPKFVTVWVR]

MIC [16]: 20 µM (≈ 59.8 µg/mL) | MIC [17]: 10 µM (≈ 29.9 µg/mL) | MIC [18]: 10 µM (≈ 29.9 µg/mL)
Structure (SMILES): CC[C@H](C)[C@H](NC(=O)[C@@H](NC(=O)[C@@H](N)CCCN=C(N)N)[C@@H](C)CC)C(=O)N[C@@H](CC(=O)O)C(=O)N[C@@H](CC(C)C)C(=O)N[C@@H](CC(C)C)C(=O)N[C@@H](Cc1c[nH]c2ccccc12)C(=O)N[C@@H](CCCN=C(N)N)C(=O)N[C@H](C(=O)N[C@@H](Cc1c[nH]c2ccccc12)C(=O)N[C@@H](CCCN=C(N)N)C(=O)N1CCC[C@H]1C(=O)N[C@@H](CCC(N)=O)C(=O)N[C@@H](CCCCN)C(=O)N1CCC[C@H]1C(=O)N[C@@H](CCCCN)C(=O)N[C@@H](Cc1ccccc1)C(=O)N[C@H](C(=O)N[C@H](C(=O)N[C@H](C(=O)N[C@@H](Cc1c[nH]c2ccccc12)C(=O)N[C@H](C(=O)N[C@@H](CCCN=C(N)N)C(N)=O)C(C)C)C(C)C)[C@@H](C)O)C(C)C)C(C)C [RIIDLLWRVWRPQKPKFVTVWVR]

MIC [10]: 4 µM and 8 µM | MIC [11]: 4 µM and 8 µM | MIC [12]: 4 µM and 8 µM | MIC [13]: 10 µM and 4 µM and 8 µM | MIC [5]: 8 µM and > 4 µM and 10 µM | MIC [19]: 8 µM (≈ 13 µg/mL) | MIC [15]: 8 µM and > 4 µM and 10 µM
Structure (SMILES): CC[C@H](C)[C@H](NC(=O)[C@H](CC(C)C)NC(=O)[C@H](Cc1c[nH]c2ccccc12)NC(=O)[C@@H](NC(=O)[C@H](CC(C)C)NC(=O)[C@H](CCCN=C(N)N)NC(=O)[C@@H](N)CCCN=C(N)N)[C@@H](C)CC)C(=O)N[C@@H](CC(C)C)C(=O)N[C@@H](CCCN=C(N)N)C(=O)N[C@@H](CC(C)C)C(=O)N[C@@H](CC(C)C)C(=O)N[C@@H](CCCN=C(N)N)C(N)=O [RRLIWLILRLLR]

MIC [8]: 6.46 µM (≈ 16 µg/mL) | MIC [9]: 6.46 µM (≈ 16 µg/mL)
Structure (SMILES): CC[C@H](C)[C@H](NC(=O)[C@H](CCCN=C(N)N)NC(=O)[C@H](CCCN=C(N)N)NC(=O)[C@@H]1CCCN1C(=O)[C@@H]1CCCN1C(=O)[C@H](CCCCN)NC(=O)[C@@H]1CCCN1C(=O)[C@H](CCCN=C(N)N)NC(=O)[C@@H]1CCCN1C(=O)[C@H](CC(C)C)NC(=O)[C@H](Cc1ccc(O)cc1)NC(=O)[C@@H]1CCCN1C(=O)[C@@H]1CCCN1C(=O)[C@H](CCCCN)NC(=O)[C@H](CC(=O)O)NC(=O)[C@@H](N)C(C)C)C(=O)N[C@@H](Cc1ccc(O)cc1)C(=O)N[C@@H](CC(N)=O)C(=O)N[C@@H](CC(N)=O)C(=O)N[C@@H](CCCN=C(N)N)C(=O)O [VDKPPYLPRPKPPRRIYNNR]
